Assay results reported in ChEMBL document CHEMBL5724914, “Linking interpersonal differences in gut microbiota composition and drug biotransformation activity” (2024).

Assay: (§1) The drug is tested on Z-029 corresponding to rat gut metagenome with ENA study accession number: PRJEB37062 and ENA sample accession number: ERS12561828 for biotransformation under anaerobic condition. The drug concentrations were measured over 9 timepoints collected between 0 and 24 hours of incubation by liquid-chromatography-coupled mass spectrometry (LC–MS)
Settings: 2 µM
Note: call rule not given here.

Bacterial Biotransformation	SMILES
Compound NOT metabolized	CC(C)(C#N)c1cc(Cn2cncn2)cc(C(C)(C)C#N)c1 [ANASTROZOLE]
Compound NOT metabolized	CNS(=O)(=O)Cc1ccc2[nH]cc(CCN(C)C)c2c1.O=C(O)CCC(=O)O [SUMATRIPTAN SUCCINATE]

Assay: as §1, with “on Z-018” for “on Z-029”, “to pig” for “to rat”, “number: ERS12561817” for “number: ERS12561828”
Settings: 2 µM

Bacterial Biotransformation	SMILES
Compound NOT metabolized	CC(C)(C#N)c1cc(Cn2cncn2)cc(C(C)(C)C#N)c1 [ANASTROZOLE]
Compound NOT metabolized	CNS(=O)(=O)Cc1ccc2[nH]cc(CCN(C)C)c2c1.O=C(O)CCC(=O)O [SUMATRIPTAN SUCCINATE]

Assay: as §1, with “Z-012” for “Z-029”, “to” for “to rat gut”, “ERS12561812” for “ERS12561828”
Settings: 2 µM

Bacterial Biotransformation	SMILES
Compound NOT metabolized	CC(C)(C#N)c1cc(Cn2cncn2)cc(C(C)(C)C#N)c1 [ANASTROZOLE]
Compound NOT metabolized	CNS(=O)(=O)Cc1ccc2[nH]cc(CCN(C)C)c2c1.O=C(O)CCC(=O)O [SUMATRIPTAN SUCCINATE]

Assay: as §1, with “Z-007” for “Z-029”, “ERS12561807” for “ERS12561828”
Settings: 2 µM

Bacterial Biotransformation	SMILES
Compound NOT metabolized	CC(C)(C#N)c1cc(Cn2cncn2)cc(C(C)(C)C#N)c1 [ANASTROZOLE]
Compound NOT metabolized	CNS(=O)(=O)Cc1ccc2[nH]cc(CCN(C)C)c2c1.O=C(O)CCC(=O)O [SUMATRIPTAN SUCCINATE]

Assay: as §1, with “Z-005” for “Z-029”, “to” for “to rat gut”, “ERS12561805” for “ERS12561828”
Settings: 2 µM

Bacterial Biotransformation	SMILES
Compound NOT metabolized	CC(C)(C#N)c1cc(Cn2cncn2)cc(C(C)(C)C#N)c1 [ANASTROZOLE]
Compound NOT metabolized	CNS(=O)(=O)Cc1ccc2[nH]cc(CCN(C)C)c2c1.O=C(O)CCC(=O)O [SUMATRIPTAN SUCCINATE]

Assay: as §1, with “on Z-003” for “on Z-029”, “to pig” for “to rat”, “number: ERS12561803” for “number: ERS12561828”
Settings: 2 µM

Bacterial Biotransformation	SMILES
Compound metabolized	CC(C)(C#N)c1cc(Cn2cncn2)cc(C(C)(C)C#N)c1 [ANASTROZOLE]
Compound metabolized	CNS(=O)(=O)Cc1ccc2[nH]cc(CCN(C)C)c2c1.O=C(O)CCC(=O)O [SUMATRIPTAN SUCCINATE]

Assay: as §1, with “on WLS-350” for “on Z-029”, “to human” for “to rat”, “number: ERS12561789” for “number: ERS12561828”
Settings: 2 µM

Bacterial Biotransformation	SMILES
Compound metabolized	CC(C)(C#N)c1cc(Cn2cncn2)cc(C(C)(C)C#N)c1 [ANASTROZOLE]
Compound NOT metabolized	CNS(=O)(=O)Cc1ccc2[nH]cc(CCN(C)C)c2c1.O=C(O)CCC(=O)O [SUMATRIPTAN SUCCINATE]

Assay: as §1, with “on WLS-240” for “on Z-029”, “to human” for “to rat”, “number: ERS12561773” for “number: ERS12561828”
Settings: 2 µM

Bacterial Biotransformation	SMILES
Compound metabolized	CC(C)(C#N)c1cc(Cn2cncn2)cc(C(C)(C)C#N)c1 [ANASTROZOLE]
Compound metabolized	CNS(=O)(=O)Cc1ccc2[nH]cc(CCN(C)C)c2c1.O=C(O)CCC(=O)O [SUMATRIPTAN SUCCINATE]

Assay: as §1, with “on WLS-082” for “on Z-029”, “to human” for “to rat”, “number: ERS12561751” for “number: ERS12561828”
Settings: 2 µM

Bacterial Biotransformation	SMILES
Compound NOT metabolized	CC(C)(C#N)c1cc(Cn2cncn2)cc(C(C)(C)C#N)c1 [ANASTROZOLE]
Compound NOT metabolized	CNS(=O)(=O)Cc1ccc2[nH]cc(CCN(C)C)c2c1.O=C(O)CCC(=O)O [SUMATRIPTAN SUCCINATE]

Settings: human gut metagenome, 24 h, 2 µM

Bacterial Biotransformation	SMILES
Compound metabolized	CC(C)(C#N)c1cc(Cn2cncn2)cc(C(C)(C)C#N)c1 [ANASTROZOLE]
Compound NOT metabolized	CNS(=O)(=O)Cc1ccc2[nH]cc(CCN(C)C)c2c1.O=C(O)CCC(=O)O [SUMATRIPTAN SUCCINATE]

Settings: human gut metagenome, 24 h, 2 µM
Remark: another data set of the same source

Bacterial Biotransformation	SMILES
Compound NOT metabolized	CC(C)(C#N)c1cc(Cn2cncn2)cc(C(C)(C)C#N)c1 [ANASTROZOLE]
Compound NOT metabolized	CNS(=O)(=O)Cc1ccc2[nH]cc(CCN(C)C)c2c1.O=C(O)CCC(=O)O [SUMATRIPTAN SUCCINATE]

Settings: human gut metagenome, 24 h, 2 µM
Remark: another data set of the same source

Bacterial Biotransformation	SMILES
Compound NOT metabolized	CC(C)(C#N)c1cc(Cn2cncn2)cc(C(C)(C)C#N)c1 [ANASTROZOLE]
Compound NOT metabolized	CNS(=O)(=O)Cc1ccc2[nH]cc(CCN(C)C)c2c1.O=C(O)CCC(=O)O [SUMATRIPTAN SUCCINATE]

Settings: human gut metagenome, 24 h, 2 µM
Remark: another data set of the same source

Bacterial Biotransformation	SMILES
Compound NOT metabolized	CC(C)(C#N)c1cc(Cn2cncn2)cc(C(C)(C)C#N)c1 [ANASTROZOLE]
Compound metabolized	CNS(=O)(=O)Cc1ccc2[nH]cc(CCN(C)C)c2c1.O=C(O)CCC(=O)O [SUMATRIPTAN SUCCINATE]

Settings: human gut metagenome, 24 h, 2 µM
Remark: another data set of the same source

Bacterial Biotransformation	SMILES
Compound metabolized	CC(C)(C#N)c1cc(Cn2cncn2)cc(C(C)(C)C#N)c1 [ANASTROZOLE]
Compound metabolized	CNS(=O)(=O)Cc1ccc2[nH]cc(CCN(C)C)c2c1.O=C(O)CCC(=O)O [SUMATRIPTAN SUCCINATE]

Settings: human gut metagenome, 24 h, 2 µM
Remark: another data set of the same source

Bacterial Biotransformation	SMILES
Compound NOT metabolized	CC(C)(C#N)c1cc(Cn2cncn2)cc(C(C)(C)C#N)c1 [ANASTROZOLE]
Compound NOT metabolized	CNS(=O)(=O)Cc1ccc2[nH]cc(CCN(C)C)c2c1.O=C(O)CCC(=O)O [SUMATRIPTAN SUCCINATE]

Settings: human gut metagenome, 24 h, 2 µM
Remark: another data set of the same source

Bacterial Biotransformation	SMILES
Compound NOT metabolized	CC(C)(C#N)c1cc(Cn2cncn2)cc(C(C)(C)C#N)c1 [ANASTROZOLE]
Compound metabolized	CNS(=O)(=O)Cc1ccc2[nH]cc(CCN(C)C)c2c1.O=C(O)CCC(=O)O [SUMATRIPTAN SUCCINATE]

Settings: human gut metagenome, 24 h, 2 µM
Remark: another data set of the same source

Bacterial Biotransformation	SMILES
Compound NOT metabolized	CC(C)(C#N)c1cc(Cn2cncn2)cc(C(C)(C)C#N)c1 [ANASTROZOLE]
Compound NOT metabolized	CNS(=O)(=O)Cc1ccc2[nH]cc(CCN(C)C)c2c1.O=C(O)CCC(=O)O [SUMATRIPTAN SUCCINATE]

Settings: human gut metagenome, 24 h, 2 µM
Remark: another data set of the same source

Bacterial Biotransformation	SMILES
Compound NOT metabolized	CC(C)(C#N)c1cc(Cn2cncn2)cc(C(C)(C)C#N)c1 [ANASTROZOLE]
Compound NOT metabolized	CNS(=O)(=O)Cc1ccc2[nH]cc(CCN(C)C)c2c1.O=C(O)CCC(=O)O [SUMATRIPTAN SUCCINATE]

Settings: human gut metagenome, 24 h, 2 µM
Remark: another data set of the same source

Bacterial Biotransformation	SMILES
Compound metabolized	CC(C)(C#N)c1cc(Cn2cncn2)cc(C(C)(C)C#N)c1 [ANASTROZOLE]
Compound metabolized	CNS(=O)(=O)Cc1ccc2[nH]cc(CCN(C)C)c2c1.O=C(O)CCC(=O)O [SUMATRIPTAN SUCCINATE]

Settings: human gut metagenome, 24 h, 2 µM
Remark: another data set of the same source

Bacterial Biotransformation	SMILES
Compound NOT metabolized	CC(C)(C#N)c1cc(Cn2cncn2)cc(C(C)(C)C#N)c1 [ANASTROZOLE]
Compound NOT metabolized	CNS(=O)(=O)Cc1ccc2[nH]cc(CCN(C)C)c2c1.O=C(O)CCC(=O)O [SUMATRIPTAN SUCCINATE]
